Data as given in patent publication US8609708B2 (Human BioMolecular Research Institute, priority 2003, dated 2013).
Read-outs that look alike come from different tables or passages of the source. Values belong to the compound of their own block, whether it stands above or below them.

Assays:
CYP2C19 = CYP2C19 (Homo sapiens (Human), UniProt P33261); assay: CYP2C19 Vivid blue substrate O-dealkylation inhibition; type: biochemical
[1] = molecular target: CYP2C19 relative to CYP2A6 (Homo sapiens (Human), UniProt P33261); assay: as above; type: biochemical
[2] = molecular target: CYP2D6 relative to CYP2A6 (Homo sapiens (Human), UniProt P10635); assay: CYP2D6 Vivid blue substrate O-dealkylation inhibition; type: biochemical; conditions: recombinant CYP2D6 BACULOSOMES, pH 8, probe Vivid blue substrate (10 μM), O-dealkylation
CYP2D6 = CYP2D6 (Homo sapiens (Human), UniProt P10635); assay: as above; type: biochemical
[3] = molecular target: CYP2C9 relative to CYP2A6 (Homo sapiens (Human), UniProt P11712); assay: CYP2C9 Vivid blue substrate O-dealkylation inhibition; type: biochemical
CYP2C9 = CYP2C9 (Homo sapiens (Human), UniProt P11712); assay: as above; type: biochemical
CYP2B6 = CYP2B6 (Homo sapiens (Human), UniProt P20813); assay: CYP2B6 Vivid blue substrate O-dealkylation inhibition; type: biochemical
[4] = molecular target: CYP2B6 relative to CYP2A6 (Homo sapiens (Human), UniProt P20813); assay: as above; type: biochemical; conditions: recombinant CYP2B6 BACULOSOMES, pH 8, probe Vivid blue substrate (5 μM), O-dealkylation
[5] = molecular target: CYP2E1 relative to CYP2A6 (Homo sapiens (Human), UniProt P05181); assay: CYP2E1 Vivid blue substrate O-dealkylation inhibition; type: biochemical; conditions: recombinant CYP2E1 BACULOSOMES, pH 8, probe Vivid blue substrate (10 μM), O-dealkylation
CYP2E1 = CYP2E1 (Homo sapiens (Human), UniProt P05181); assay: as above; type: biochemical
[6] = molecular target: CYP3A4 relative to CYP2A6 (Homo sapiens (Human), UniProt P08684); assay: in vitro; conditions: human; for selectivity ratio at 30 min: pH 7.5
Experimental: (§1) To gain insight into the selectivity of the synthetic compounds, nicotine, nicotine related alkaloids and nicotine metabolites for inhibition of other CYPs, we examined the major CYP present in human liver (i.e., CYP 3A4). […] A typical incubation mixture ([…] ), 0.5 mM NADP^+, 2.0 mM G6P, 1 U of G6P dehydrogenase, […] inhibitor was added last as to minimize interaction with the protein. After mixing on ice, the reaction was initiated by the addition of substrate and incubated at 37° C. with shaking in air. Organic extracts were injected onto a Hitachi L-7100 system equipped with a Hitachi L-7400 UV detector. Separations were done with an Altex Ultrasphere ODS (4.6 mm×250 mm, 5 μm) column. The analytes were eluted with an isocratic solvent system consisting of water/acetonitrile/methanol (30:10:60, v/v/v) at a flow rate of 1.0 mL/min. […] Quantification of substrate and metabolite was determined from peak areas of the chromatogram and comparison with standard curves. IC50 values were determined as described below.
(§2) To measure CYP3A4 activity, testosterone 6-hydroxylation was determined.

CYP3A4 = CYP3A4 (Homo sapiens (Human), UniProt P08684); assay: CYP3A4 inhibition assay (testosterone 6-hydroxylation)
Experimental: as §1, §2

human CYP2A6 [7] = molecular target: T1, human CYP2A6 (Homo sapiens (Human), UniProt P11509); assay: CYP2A6 mediated coumarin 7-hydroxylation inhibition; conditions: for Ki: coumarin 7-hydroxylation
P450 2A6dH [8] = molecular target: T2, P450 2A6dH (Homo sapiens (Human), UniProt P11509, INS494HHHH); assay: Difference spectra of test compounds with N-terminal truncated CYP2A6; conditions: difference spectrum with truncated CYP2A6
human CYP2A6 [9] = molecular target: T1, human CYP2A6
[10] = Mouse liver microsome stability assay; conditions: mouse liver microsomes, 40 μM test compound
P450 2A6dH [11] = molecular target: T2, P450 2A6dH
[12] = insect cell microsomes expressing CYP2C19, 0.2M potassium phosphate buffer, mean of at least 3 determinations ± SD, read-out: IC50 ± SD 2C19
[13] = insect cell microsomes expressing CYP2D6, 0.2M potassium phosphate buffer, mean of at least 3 determinations ± SD, read-out: IC50 ± SD 2D6
[14] = insect cell microsomes expressing CYP2C9, 0.2M potassium phosphate buffer, mean of at least 3 determinations ± SD, read-out: IC50 ± SD 2C9
[15] = insect cell microsomes expressing CYP2B6, 0.2M potassium phosphate buffer, mean of at least 3 determinations ± SD, read-out: IC50 ± SD 2B6
[16] = insect cell microsomes expressing CYP2E1, 0.2M potassium phosphate buffer, mean of at least 3 determinations ± SD, read-out: IC50 ± SD 2E1
[17] = apparent Ki from IC50 by Cheng-Prusoff

CYP2B6, sequence (P20813 whole entry): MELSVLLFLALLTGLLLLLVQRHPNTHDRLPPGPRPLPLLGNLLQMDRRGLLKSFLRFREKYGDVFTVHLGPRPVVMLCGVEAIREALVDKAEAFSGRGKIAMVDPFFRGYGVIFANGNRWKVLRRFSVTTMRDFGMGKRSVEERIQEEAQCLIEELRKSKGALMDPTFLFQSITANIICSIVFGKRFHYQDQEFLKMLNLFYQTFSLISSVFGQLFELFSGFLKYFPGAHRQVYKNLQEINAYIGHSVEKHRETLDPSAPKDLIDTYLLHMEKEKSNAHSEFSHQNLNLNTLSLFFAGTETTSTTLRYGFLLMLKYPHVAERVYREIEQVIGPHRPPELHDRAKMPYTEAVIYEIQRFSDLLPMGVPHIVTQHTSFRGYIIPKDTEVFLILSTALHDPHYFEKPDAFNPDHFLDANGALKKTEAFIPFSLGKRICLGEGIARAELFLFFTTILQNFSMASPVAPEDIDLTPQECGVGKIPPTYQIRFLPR
CYP2C19, sequence (P33261 whole entry): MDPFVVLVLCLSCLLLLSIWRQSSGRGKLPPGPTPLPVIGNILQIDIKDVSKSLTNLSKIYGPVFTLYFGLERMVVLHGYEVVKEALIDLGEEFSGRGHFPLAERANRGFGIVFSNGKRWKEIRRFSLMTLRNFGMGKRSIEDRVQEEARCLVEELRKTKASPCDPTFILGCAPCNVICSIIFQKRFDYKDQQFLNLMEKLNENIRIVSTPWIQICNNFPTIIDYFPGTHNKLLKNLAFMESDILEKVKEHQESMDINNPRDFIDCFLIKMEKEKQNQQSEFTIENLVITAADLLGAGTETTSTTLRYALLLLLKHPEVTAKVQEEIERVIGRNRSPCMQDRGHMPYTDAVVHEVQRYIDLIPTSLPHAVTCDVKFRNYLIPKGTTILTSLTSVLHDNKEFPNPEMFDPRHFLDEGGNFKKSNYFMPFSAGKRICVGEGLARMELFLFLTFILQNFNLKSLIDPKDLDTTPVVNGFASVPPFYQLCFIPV
CYP2C19 relative to CYP2A6, sequence (P33261 whole entry): as above
CYP2E1, sequence (P05181 whole entry): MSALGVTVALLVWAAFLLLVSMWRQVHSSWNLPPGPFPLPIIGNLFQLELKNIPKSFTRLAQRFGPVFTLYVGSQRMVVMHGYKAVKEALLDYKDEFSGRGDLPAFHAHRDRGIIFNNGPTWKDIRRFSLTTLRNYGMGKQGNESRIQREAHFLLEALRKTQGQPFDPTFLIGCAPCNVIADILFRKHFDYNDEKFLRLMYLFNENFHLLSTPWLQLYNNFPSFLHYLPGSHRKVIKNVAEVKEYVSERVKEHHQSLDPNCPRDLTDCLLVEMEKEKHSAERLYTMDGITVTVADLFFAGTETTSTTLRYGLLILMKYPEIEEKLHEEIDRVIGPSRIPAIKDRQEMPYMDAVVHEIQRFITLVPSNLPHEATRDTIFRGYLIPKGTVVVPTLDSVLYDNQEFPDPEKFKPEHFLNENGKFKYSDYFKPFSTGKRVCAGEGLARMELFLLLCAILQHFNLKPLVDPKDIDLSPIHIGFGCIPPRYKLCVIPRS
T1 sequence (P11509 whole entry, the tested form may be a part): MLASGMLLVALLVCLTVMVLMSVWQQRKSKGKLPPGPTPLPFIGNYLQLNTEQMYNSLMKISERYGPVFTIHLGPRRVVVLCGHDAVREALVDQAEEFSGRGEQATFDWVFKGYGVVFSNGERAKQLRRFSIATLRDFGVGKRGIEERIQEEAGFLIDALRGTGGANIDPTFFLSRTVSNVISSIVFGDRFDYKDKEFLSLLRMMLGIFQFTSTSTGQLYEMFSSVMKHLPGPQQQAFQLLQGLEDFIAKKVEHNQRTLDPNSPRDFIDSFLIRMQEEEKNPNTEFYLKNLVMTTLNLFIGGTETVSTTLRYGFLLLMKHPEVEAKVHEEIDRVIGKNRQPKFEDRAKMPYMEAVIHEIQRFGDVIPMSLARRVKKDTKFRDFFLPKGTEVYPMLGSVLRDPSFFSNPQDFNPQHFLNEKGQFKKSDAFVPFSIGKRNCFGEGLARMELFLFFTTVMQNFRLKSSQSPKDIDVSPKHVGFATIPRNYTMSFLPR
T2 sequence (P11509 other isoform, or with tags, fused parts or gaps 1-28 replaced by MAKKTS/ins HHHH behind 494): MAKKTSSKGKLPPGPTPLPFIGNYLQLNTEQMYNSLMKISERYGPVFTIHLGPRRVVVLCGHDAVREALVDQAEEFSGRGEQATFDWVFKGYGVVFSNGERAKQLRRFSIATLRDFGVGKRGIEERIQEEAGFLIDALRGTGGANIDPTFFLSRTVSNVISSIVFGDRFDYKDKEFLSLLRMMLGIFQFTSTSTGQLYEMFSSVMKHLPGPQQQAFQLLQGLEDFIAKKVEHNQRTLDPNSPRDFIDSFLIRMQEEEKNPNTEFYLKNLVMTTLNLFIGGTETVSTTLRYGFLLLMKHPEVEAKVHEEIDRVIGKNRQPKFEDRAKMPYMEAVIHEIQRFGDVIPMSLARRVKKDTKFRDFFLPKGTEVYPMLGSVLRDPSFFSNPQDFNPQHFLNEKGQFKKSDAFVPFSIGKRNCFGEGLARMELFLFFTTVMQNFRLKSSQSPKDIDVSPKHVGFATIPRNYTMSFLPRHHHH
CYP2C9 relative to CYP2A6, sequence (P11712 whole entry): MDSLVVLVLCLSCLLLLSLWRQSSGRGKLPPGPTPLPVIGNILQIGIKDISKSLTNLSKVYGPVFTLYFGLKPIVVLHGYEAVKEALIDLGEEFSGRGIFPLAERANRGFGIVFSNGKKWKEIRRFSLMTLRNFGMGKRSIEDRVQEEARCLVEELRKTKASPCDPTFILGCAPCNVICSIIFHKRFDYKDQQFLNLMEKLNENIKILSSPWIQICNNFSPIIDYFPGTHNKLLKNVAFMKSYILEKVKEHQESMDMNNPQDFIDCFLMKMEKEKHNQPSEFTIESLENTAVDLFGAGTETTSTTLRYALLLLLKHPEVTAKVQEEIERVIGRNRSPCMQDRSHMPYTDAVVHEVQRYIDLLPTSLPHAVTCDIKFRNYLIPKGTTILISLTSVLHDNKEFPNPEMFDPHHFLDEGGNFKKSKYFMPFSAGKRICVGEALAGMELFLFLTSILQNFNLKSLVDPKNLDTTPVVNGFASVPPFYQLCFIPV
CYP2C9, sequence (P11712 whole entry): as above
CYP3A4 relative to CYP2A6, sequence (P08684 whole entry): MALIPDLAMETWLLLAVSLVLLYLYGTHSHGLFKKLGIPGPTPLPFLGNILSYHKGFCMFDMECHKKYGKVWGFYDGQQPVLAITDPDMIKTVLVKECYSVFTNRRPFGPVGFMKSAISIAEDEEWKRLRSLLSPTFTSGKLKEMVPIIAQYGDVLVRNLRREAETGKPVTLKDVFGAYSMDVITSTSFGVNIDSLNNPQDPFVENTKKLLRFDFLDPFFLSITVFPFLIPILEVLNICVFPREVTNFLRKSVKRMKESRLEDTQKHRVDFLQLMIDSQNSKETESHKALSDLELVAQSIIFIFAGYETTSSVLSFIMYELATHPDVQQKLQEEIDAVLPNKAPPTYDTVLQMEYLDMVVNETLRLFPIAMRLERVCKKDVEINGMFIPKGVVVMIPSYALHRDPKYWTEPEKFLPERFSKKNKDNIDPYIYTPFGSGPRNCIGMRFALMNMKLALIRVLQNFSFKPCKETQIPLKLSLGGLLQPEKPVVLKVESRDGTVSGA
CYP3A4, sequence (P08684 whole entry): as above
CYP2D6, sequence (P10635 whole entry): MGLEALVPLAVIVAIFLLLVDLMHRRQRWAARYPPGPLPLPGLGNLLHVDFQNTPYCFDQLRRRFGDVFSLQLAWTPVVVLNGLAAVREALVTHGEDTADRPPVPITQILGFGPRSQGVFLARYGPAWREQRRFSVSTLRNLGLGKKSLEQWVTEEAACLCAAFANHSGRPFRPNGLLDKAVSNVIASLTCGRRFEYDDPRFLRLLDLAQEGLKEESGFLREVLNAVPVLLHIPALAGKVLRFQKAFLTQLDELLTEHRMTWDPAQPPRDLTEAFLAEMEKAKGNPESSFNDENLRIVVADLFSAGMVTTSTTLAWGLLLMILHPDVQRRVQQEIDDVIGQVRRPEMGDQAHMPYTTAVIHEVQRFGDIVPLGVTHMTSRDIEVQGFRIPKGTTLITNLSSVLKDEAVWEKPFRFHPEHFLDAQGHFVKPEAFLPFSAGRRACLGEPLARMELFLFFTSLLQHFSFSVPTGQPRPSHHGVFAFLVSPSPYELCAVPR

Compound: Nc1ccc(-c2cccnc2)s1 [Compound 57, 5-(Pyridin-3-yl)thiophen-2-amine]
- IC50 (CYP2C19; [12]): 3.2 ± 0.2 µM
- selectivity ratio at 40 min ([1]; recombinant CYP2C19 BACULOSOMES, pH 8, probe Vivid blue substrate (10 μM), O-dealkylation, human CYP2C19 versus human CYP2A6, read-out: Selectivity ratio (IC50 CYPX/IC50 CYP2A6) 2C19/2A6): 0.9
- selectivity ratio at 40 min ([2]; human CYP2D6 versus human CYP2A6, read-out: Selectivity ratio (IC50 CYPX/IC50 CYP2A6) 2D6/2A6): 4.1
- IC50 (CYP2D6; [13]): 14.4 ± 0.9 µM
- selectivity ratio at 40 min ([3]; recombinant CYP2C9 BACULOSOMES, pH 8, probe Vivid blue substrate (10 μM), O-dealkylation, human CYP2C9 versus human CYP2A6, read-out: Selectivity ratio (IC50 CYPX/IC50 CYP2A6) 2C9/2A6): 0.6
- IC50 (CYP2C9; [14]): 2.1 ± 0.2 µM
- IC50 (CYP2B6; [15]): 6.8 ± 0.8 µM
- selectivity ratio at 40 min ([4]; human CYP2B6 versus human CYP2A6, read-out: Selectivity ratio (IC50 CYPX/IC50 CYP2A6) 2B6/2A6): 1.9
- selectivity ratio at 40 min ([5]; human CYP2E1 versus human CYP2A6, read-out: Selectivity ratio (IC50 CYPX/IC50 CYP2A6) 2E1/2A6): 8.9
- IC50 (CYP2E1; [16]): 31.1 ± 5.7 µM
- selectivity ratio ([6]; pH 7.5, 3A4/2A6 selectivity ratio (IC50 CYPX/IC50 CYP2A6)): 2
- selectivity ratio ([6]; pH 7.5, Selectivity ratio (IC50 CYPX/IC50 CYP2A6) 3A4/2A6): 2
- IC50 (CYP3A4; read-out: IC50 ± SD 3A4, human liver microsomes, 0.05M potassium phosphate buffer, pH 7.5, mean of at least 3 determinations ± SD): 6.3 ± 1.4 µM
- Ki (human CYP2A6 [7]; [17]): 590 ± 50 nM
- Ki (human CYP2A6 [7]; unit inferred): 590 ± 50 nM
- IC50 (human CYP2A6 [7]; read-out: IC50 ± SD 2A6, insect cell microsomes expressing CYP2A6, 0.1M Tris buffer, mean of at least 3 determinations ± SD): 3.5 ± 0.3 µM

- binding type (P450 2A6dH [8]): type 1
- Ki (human CYP2A6 [7]; [17]): 11000 ± 1500 nM
- fold decrease of CYP2A6 inhibitor potency (human CYP2A6 [7]; relative to compound 9): 110 fold
Compound: Cc1cncc(-c2sccc2C)c1 [Compound 55, 3-Methyl-5-(3-methylthiophen-2-yl)pyridine]

Compound: Nc1ccc(-c2cccnc2)s1 [Compound 21]
- IC50 (human CYP2A6 [9]): 3.51 ± 0.28 µM
- selectivity ratio ([6]; pH 7.5, Selectivity Ratio: IC50 (Inhibition of CYP3A4)/IC50 (Inhibition of CYP2A6)): 0.45
- IC50 (CYP3A4; read-out: CYP3A4 IC50, testosterone 6-hydroxylation): 1.59 ± 1.63 µM

- IC50 (CYP2C19; Table 4, unit inferred, read-out: 2C19 IC50 ± SD): 157 ± 10 µM
- IC50 (CYP2D6; Table 4, unit inferred, read-out: 2D6 IC50 ± SD): 253 ± 35 µM
- IC50 (CYP2C9; Table 4, unit inferred, read-out: 2C9 IC50 ± SD): 222 ± 16 µM
- IC50 (CYP2B6; Table 4, unit inferred, read-out: 2B6 IC50 ± SD): > 400 µM
- IC50 (CYP2E1; Table 4, unit inferred, read-out: 2E1 IC50 ± SD): > 400 µM
- binding type (P450 2A6dH [8]): Type II
- IC50 (CYP3A4): 294 ± 25 µM
- MLM t1/2 [10]: Stable^a
Compound: CN(C)Cc1ccc(-c2cccnc2)o1 [Compound 2c]

Compound: CC(=O)c1ccc(-c2cccnc2)s1 [Compound 36]
- IC50 (human CYP2A6 [9]; human, pH 7.5): 8.61 ± 1.33 µM
- fold decrease of CYP2A6 inhibitor potency (human CYP2A6 [9]; human, pH 7.5): 12 fold
- Selectivity ratio (IC50 CYPX/IC50 CYP2A6) 2C19/2A6 (CYP2C19; human CYP2C19 versus human CYP2A6): 27
- Selectivity ratio (IC50 CYPX/IC50 CYP2A6) 2D6/2A6 (CYP2D6; human CYP2D6 versus human CYP2A6): 136
- Selectivity ratio (IC50 CYPX/IC50 CYP2A6) 2C9/2A6 (CYP2C9; human CYP2C9 versus human CYP2A6): 159
- Selectivity ratio (IC50 CYPX/IC50 CYP2A6) 2B6/2A6 (CYP2B6; human CYP2B6 versus human CYP2A6): 153
- Selectivity ratio (IC50 CYPX/IC50 CYP2A6) 2E1/2A6 (CYP2E1; human CYP2E1 versus human CYP2A6): 3
- selectivity ratio at 30 min [6]: 3

Compound: NCc1ccc(-c2cccnc2)o1 [Compound 39a, (5-(Pyridin-3-yl)furan-2-yl)methanamine]
- IC50 (human CYP2A6 [9]; human, pH 7.5): 0.27 ± 0.02 µM
- Ki (human CYP2A6 [9]; human, pH 7.5): 40 ± 4 nM
- IC50 (CYP2C19; [12]): 22 ± 1.6 µM
- selectivity ratio at 40 min ([1]; human, pH 8, 2C19/2A6 selectivity ratio (IC50 CYPX/IC50 CYP2A6)): 82
- selectivity ratio at 40 min ([1]; human, pH 8, human CYP2C19 versus human CYP2A6, read-out: Selectivity ratio (IC50 CYPX/IC50 CYP2A6) 2C19/2A6): 82
- selectivity ratio at 40 min ([2]; human, human CYP2D6 versus human CYP2A6, read-out: Selectivity ratio (IC50 CYPX/IC50 CYP2A6) 2D6/2A6): 41
- selectivity ratio at 40 min ([2]; human, read-out: 2D6/2A6 selectivity ratio (IC50 CYPX/IC50 CYP2A6)): 41
- IC50 (CYP2D6; [13]): 11.3 ± 2.6 µM
- selectivity ratio at 40 min ([3]; human, pH 8, 2C9/2A6 selectivity ratio (IC50 CYPX/IC50 CYP2A6)): 41
- selectivity ratio at 40 min ([3]; human, pH 8, human CYP2C9 versus human CYP2A6, read-out: Selectivity ratio (IC50 CYPX/IC50 CYP2A6) 2C9/2A6): 41
- IC50 (CYP2C9; [14]): 11.7 ± 2.2 µM
- IC50 (CYP2B6; [15]): 191 ± 24 µM
- selectivity ratio at 40 min ([4]; human, read-out: 2B6/2A6 selectivity ratio (IC50 CYPX/IC50 CYP2A6)): 707
- selectivity ratio at 40 min ([5]; human, read-out: 2E1/2A6 selectivity ratio (IC50 CYPX/IC50 CYP2A6)): 637
- IC50 (CYP2E1; [16]): 172 ± 52 µM
- selectivity ratio at 30 min [6]: 174
- binding type (P450 2A6dH [11]): type 2
